Here are results for 35 compounds from ChEMBL document CHEMBL1201862, “PubChem BioAssay data set” (2004).

Calls of active or inactive are those of the source.

The target of assay [1] is T1, Corticotropin-releasing factor receptor 2/Corticotropin-releasing factor-binding protein (Homo sapiens, UniProt P24387+Q13324).
T1 sequence (Q13324 whole entry): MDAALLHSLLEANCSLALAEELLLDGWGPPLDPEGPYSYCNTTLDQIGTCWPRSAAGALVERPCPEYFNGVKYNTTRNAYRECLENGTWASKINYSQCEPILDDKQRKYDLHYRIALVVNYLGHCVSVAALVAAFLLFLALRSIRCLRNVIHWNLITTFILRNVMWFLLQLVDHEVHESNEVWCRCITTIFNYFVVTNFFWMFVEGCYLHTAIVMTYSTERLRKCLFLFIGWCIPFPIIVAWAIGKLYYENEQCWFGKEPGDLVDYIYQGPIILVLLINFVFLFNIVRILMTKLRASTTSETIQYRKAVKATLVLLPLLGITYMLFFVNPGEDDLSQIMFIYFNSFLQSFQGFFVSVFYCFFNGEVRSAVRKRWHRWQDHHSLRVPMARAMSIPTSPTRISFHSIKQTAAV
T1 sequence (P24387 whole entry): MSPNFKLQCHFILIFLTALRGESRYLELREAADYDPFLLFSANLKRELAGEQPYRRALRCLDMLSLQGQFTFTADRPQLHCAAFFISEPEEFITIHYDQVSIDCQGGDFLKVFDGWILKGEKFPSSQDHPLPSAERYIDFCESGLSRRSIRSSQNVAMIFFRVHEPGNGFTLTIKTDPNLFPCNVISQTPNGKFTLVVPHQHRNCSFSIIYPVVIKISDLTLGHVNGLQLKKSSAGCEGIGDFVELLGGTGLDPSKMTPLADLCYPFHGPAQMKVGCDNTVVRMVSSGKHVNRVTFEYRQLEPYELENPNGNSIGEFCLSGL
In words: Dose Response confirmation of uHTS hits for small molecule antagonists of the CRF-binding protein and CRF-R2 receptor complex. The assay is classed as functional. The settings on record: read-out: IC50_Mean.

Assay [2] concerns the target T1, Corticotropin-releasing factor receptor 2/Corticotropin-releasing factor-binding protein. In words: activators of CRF receptor 2 with binding protein – uHTS hits, confirmation (AID 602473). The assay is classed as functional. The settings on record: read-out: EC50_Mean.
A further assay addresses T2, Cytochrome P450 1A2 (Homo sapiens, UniProt P05177).
T2 sequence (P05177 whole entry): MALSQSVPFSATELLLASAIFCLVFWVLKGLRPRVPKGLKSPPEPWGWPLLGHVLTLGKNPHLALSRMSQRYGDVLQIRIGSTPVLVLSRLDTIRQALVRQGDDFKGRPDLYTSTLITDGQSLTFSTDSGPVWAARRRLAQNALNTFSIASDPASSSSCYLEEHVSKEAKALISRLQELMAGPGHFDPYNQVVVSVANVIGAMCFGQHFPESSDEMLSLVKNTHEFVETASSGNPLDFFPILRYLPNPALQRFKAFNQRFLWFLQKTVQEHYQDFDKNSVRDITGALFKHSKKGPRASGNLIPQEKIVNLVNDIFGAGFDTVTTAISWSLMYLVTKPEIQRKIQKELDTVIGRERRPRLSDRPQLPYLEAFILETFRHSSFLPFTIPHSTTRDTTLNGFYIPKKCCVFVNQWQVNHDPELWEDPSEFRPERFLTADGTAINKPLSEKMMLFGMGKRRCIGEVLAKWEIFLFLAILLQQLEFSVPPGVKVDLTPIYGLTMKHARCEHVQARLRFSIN

The nature of assay [3]: HEp-2 cell cytotoxicity, dose response, cytotoxicity control for RSV inhibitor project, HTS (AID 2410). The assay is classed as functional. The settings on record: human respiratory syncytial virus.
In the next assay the target is T3, Streptokinase A (Streptococcus pyogenes serotype M1, UniProt P10520).
T3 sequence (P10520 whole entry): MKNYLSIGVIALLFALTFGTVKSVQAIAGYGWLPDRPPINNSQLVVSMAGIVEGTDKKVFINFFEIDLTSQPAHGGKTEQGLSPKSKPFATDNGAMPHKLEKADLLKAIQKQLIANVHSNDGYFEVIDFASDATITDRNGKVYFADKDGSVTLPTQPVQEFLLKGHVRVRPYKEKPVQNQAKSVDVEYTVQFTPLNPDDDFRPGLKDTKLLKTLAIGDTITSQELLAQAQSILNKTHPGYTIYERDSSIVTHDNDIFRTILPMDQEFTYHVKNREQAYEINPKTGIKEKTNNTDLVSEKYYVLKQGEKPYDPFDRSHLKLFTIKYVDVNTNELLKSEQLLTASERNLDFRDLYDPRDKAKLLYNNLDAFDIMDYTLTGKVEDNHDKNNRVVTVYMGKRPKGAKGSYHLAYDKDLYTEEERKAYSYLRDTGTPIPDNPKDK
In words: S. pyogenes streptokinase expression inhibitors, potency, dose response, plasminogen activation absorbance, OD405 (AID 1914).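 Note: secreted streptokinase activity via plasminogen activation per viability signal from cell pellet.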 The assay is classed as functional, Streptococcus pyogenes M1 GAS.

Another assay has as its system Streptococcus. Nature of the assay: Group A Streptococcus viability loss, dose response, counter-screen for streptokinase expression inhibitor project, luminescence, BacTiterGlo (AID 1915).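 Note: potency for reduction of bacterial viability or growth.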 The assay is classed as functional, organism-based. On the technique in general: The purpose of a counterscreen is to sort out artefacts and off-target activity.
Assay [4] concerns Streptococcus sp. 'group A'. In words: growth inhibition of control SK(-) GAS strain, dose response, counter-screen for streptokinase expression inhibitor project, luminescence, kanamycin, BacTiterGlo, confirmation (AID 1900). The assay is classed as functional, organism-based.
Assay [5] in a line: growth suppression of PTEN-null colon cells, dose response, cell-based, HCT116 PTEN knockout (AID 1047).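 Note: HCT116 colon tumor cells with PTEN knocked out; cells exposed to compound for 60 hours before readout; potency for loss of cell viability measured by luminescence.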 The assay is classed as functional.
The nature of assay [6]: growth suppression of beta-catenin-knockout colon cells, dose response, cell-based, HCT116, human colon tumor (AID 1045).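 Note: HCT116 colon tumor cells with beta catenin knocked out; cells exposed to compound for 60 hours.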 The assay is classed as functional.
For assay [7], the target named is T4, Heat shock factor protein 1 (Mus musculus, UniProt P38532).
T4 sequence (P38532 whole entry): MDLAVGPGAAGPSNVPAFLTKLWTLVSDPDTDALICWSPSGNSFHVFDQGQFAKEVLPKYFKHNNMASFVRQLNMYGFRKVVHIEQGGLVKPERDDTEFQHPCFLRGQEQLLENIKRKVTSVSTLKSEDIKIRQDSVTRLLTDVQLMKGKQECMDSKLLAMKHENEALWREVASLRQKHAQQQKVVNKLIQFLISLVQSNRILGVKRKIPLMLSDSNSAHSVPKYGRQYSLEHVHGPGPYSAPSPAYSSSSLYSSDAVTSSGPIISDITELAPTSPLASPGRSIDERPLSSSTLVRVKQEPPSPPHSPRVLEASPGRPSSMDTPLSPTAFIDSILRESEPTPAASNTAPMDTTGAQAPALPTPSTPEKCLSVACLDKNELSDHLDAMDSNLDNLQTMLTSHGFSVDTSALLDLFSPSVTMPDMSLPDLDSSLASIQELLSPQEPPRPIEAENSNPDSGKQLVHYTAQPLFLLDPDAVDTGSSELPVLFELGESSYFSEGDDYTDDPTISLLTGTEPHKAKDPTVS
Nature of the assay: HSF1 potentiators in luciferase reporter cells, confirmation, cell-based, NIH3T3, luminescence, dose retest (AID 435004).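 Note: stress induced by proteasome inhibitor MG132 added 30 min after compound; luciferase reporter driven by HSF1 response element in NIH3T3 cells; actives raise luminescence as potentiators of the MG132 stress response.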 The assay is classed as functional. Background: Reporter assays use an easily measured gene product as a stand-in for the process of interest.

Assay [8] in a line: NIH-3T3 fibroblast cytotoxicity, dose response, cytotoxicity control, cell-based, fluorescence, Alamar Blue, secondary assay (AID 2327).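 Note: NIH-3T3 mouse fibroblasts cultured with fluconazole at 8 µg/mL.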 The assay is classed as functional. (Alamar Blue is a resazurin reagent that responds to reducing activity.)
A further assay deals with Cytochrome P450 2C9 (Homo sapiens, UniProt P11712).
Cytochrome P450 2C9, sequence (P11712 whole entry): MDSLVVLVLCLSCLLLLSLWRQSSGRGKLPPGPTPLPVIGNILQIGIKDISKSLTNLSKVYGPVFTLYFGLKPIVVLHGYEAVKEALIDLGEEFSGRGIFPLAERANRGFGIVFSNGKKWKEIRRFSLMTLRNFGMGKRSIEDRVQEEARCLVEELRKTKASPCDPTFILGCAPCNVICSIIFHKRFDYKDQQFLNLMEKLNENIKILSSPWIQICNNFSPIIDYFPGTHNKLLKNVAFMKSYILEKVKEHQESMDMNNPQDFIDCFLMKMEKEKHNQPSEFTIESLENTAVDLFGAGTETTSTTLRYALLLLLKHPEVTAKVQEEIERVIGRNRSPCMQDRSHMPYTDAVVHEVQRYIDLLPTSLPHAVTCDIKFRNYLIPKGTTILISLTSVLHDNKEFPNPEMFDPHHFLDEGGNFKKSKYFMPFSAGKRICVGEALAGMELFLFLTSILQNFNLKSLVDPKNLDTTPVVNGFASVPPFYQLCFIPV

With `COc1ccc(NS(=O)(=O)c2ccc(N3CCOCC3)c(NC(=O)C(C)C)c2)cc1`, the IC50 in [1] is > 47.1 µM (inactive). Also, the EC50 in assay [2] was > 53 µM (inactive).
As usually defined, the AC50 is the midpoint of the concentration-response curve, whichever way the signal moves. What is called CC50 is the concentration giving 50% cytotoxicity. As for `Cc1ccc(C)c(-c2cc(C(=O)Nc3sc(C)c(C)c3C(N)=O)c3ccccc3n2)c1`, on Cytochrome P450 1A2, the AC50 was 3.16 µM (inconclusive). In addition, in assay [3], the 50% cytotoxic concentration (CC50) was 9.97 µM (active). Besides, the EC50 at Streptokinase A is 4.64 µM (active); in the assay on Streptococcus, > 150 µM (not active); in [4], 2.81 µM (active).
Take `CCCSC(=N)N/N=C/c1ccccc1O`: the figures for the EC50 in assay [5] and in [6] were 34.7 µM (active) and 32.4 µM (active), respectively.
For `CC1CCC(NC(=O)c2ccc(/C=C3\Oc4ccccc4N(C)C3=O)cc2)CC1` (stereo unspecified) the same measures were 28 µM (active) and 26.7 µM (active).
Take `Clc1ccc(-n2nnnc2-c2cnc(-c3ccncc3)nc2-c2cccs2)cc1`: the EC50 in assay [5] is 16.9 µM (active); in assay [6], 21.1 µM (active).
In the case of `CCN(CC)C(=O)/C(=C/c1cn(S(=O)(=O)N(C)C)c2ccccc12)NC(=O)c1ccc(OC)cc1`, in assay [1], the IC50 is > 47.1 µM (inactive). Besides, in assay [2], the EC50 was > 53 µM (inactive).
Turning to `Cc1cccc(NC(=O)CCc2c(C)nn(-c3ccc(N4CCCCC4)nn3)c2C)c1`, the EC50 in assay [7] is > 260 µM (inactive).
Regarding `C[C@H](CCC(=O)O)[C@H]1CC[C@H]2[C@@H]3CC[C@@H]4CC(=O)CC[C@]4(C)[C@H]3CC(=O)[C@]12C`, in assay [7], the EC50 was > 260 µM (inactive).
For the compound `COc1ccc(C(=O)ON=C(N)Cc2ccc(Cl)cc2)cc1OC`, the EC50 in assay [5] was 21.6 µM (active); in [6], 19.1 µM (active).
For the compound `CCC1C(=NO)C(CC)C(c2ccccc2)NC1c1ccccc1` (stereo unspecified), the EC50 is > 260 µM (inactive) in assay [7], 13.3 µM (active) on Streptokinase A, 11.8 µM (active) in the assay with Streptococcus and 4.07 µM (active) in [4].
In the case of `Cc1ccccc1N=C1N=C(S)N(c2ccccc2)C12CCCCC2`, in [1], the IC50 is > 47.1 µM (inactive). Besides, the EC50 in assay [2] is > 53 µM (inactive).
Consider `COC(=O)/C(C#N)=C/c1c(N2CCCCCC2)nc2c(C)cccn2c1=O`, for which the EC50 in assay [7] was > 260 µM (inactive).
Take `CC(=O)NC1=NN(C(C)=O)C(C)(c2ccccn2)S1` (stereo unspecified): the IC50 in assay [1] was > 47.1 µM (inactive). For the same compound, the EC50 in assay [2] was > 53 µM (inactive).
In the case of `COc1ccc(CCNC(=O)c2cccc3c2C(=O)N(C2CCCCC2)C3)cc1OC`, the IC50 in [1] is 5.54 µM (active). In [2], the EC50 was > 53 µM (inactive).
In the case of `COc1ccccc1C(=O)NCCCNC(=O)c1ccccn1`, the EC50 in [7] was > 260 µM (inactive).
For `COc1ccc(CCN=C(N)S)cc1OC`, the IC50 in [1] was > 47.1 µM (inactive). In [2], the EC50 was > 53 µM (inactive).
Regarding `Cc1noc(NS(=O)(=O)c2ccc(NC(=O)CS(=O)(=O)c3ccccc3)cc2)c1C`, the IC50 in assay [1] was > 47.1 µM (inactive). The EC50 in assay [2] was > 53 µM (inactive).
In the case of `O=C(NNc1cccc(Cl)n1)Nc1ccc(Cl)cc1`, in assay [7], the EC50 is > 260 µM (inactive).
For the compound `Cc1ccc(C(=O)C=Cc2cccc(C)c2)cc1`, the IC50 in assay [1] was > 47.1 µM (inactive). Moreover, in assay [2], the EC50 was > 53 µM (inactive).
Regarding `Cc1cccc(NC(=O)c2[nH]cnc2C(=O)N[C@@H](Cc2ccccc2)C(=O)OCc2ccccc2)c1`, the CC50 in [3] was 46.3 µM (active).
As to `Cc1ccc(Cn2nnc3c(O)nc(C4CCN(S(=O)(=O)c5ccc(C)cc5)CC4)nc32)cc1`, the CC50 in [3] was 13.6 µM (active). Moreover, the EC50 in assay [8] is > 150 µM (inactive).
In the case of `Cc1ccccc1[C@@]1(C)ON(c2ccccc2C(F)(F)F)C1=O`, in [3], the cytotoxic concentration (CC50) is 21.9 µM (active).
Take `O=C(O)CC(SCC(=O)Nc1ccc(Br)cc1)C(=O)O` (stereo unspecified): the IC50 in [1] was > 47.1 µM (inactive). The EC50 in assay [2] was > 53 µM (inactive).
For `CCn1c(S)nnc1CCNC(=O)c1ccccc1Cl`, the IC50 in assay [1] was > 47.1 µM (inactive). For the same compound, the concentration at half-maximal activity (AC50) at Cytochrome P450 2C9 is 1.58 µM (inconclusive). Besides, the EC50 in [2] is > 53 µM (inactive).
On to `Cc1ccc2c(c1)/C(=C/c1ccc(F)cc1)C(=O)N2`, for which the EC50 in assay [7] was > 260 µM (inactive).
Take `CC(c1ccc(F)cc1)n1c(S)nnc1Cn1ncc2ccccc2c1=O` (stereo unspecified): the EC50 in assay [7] is > 260 µM (inactive).
For the compound `O=[N+]([O-])c1ccc(-c2csc(Nc3ccccc3)[n+]2Cc2ccccc2)cc1`, the EC50 in assay [7] is 131 µM (active).
`COc1ccc2c(c1)c(C(=O)O)c(C)n2-c1ccc(Cl)cc1`: the IC50 in assay [1] was > 47.1 µM (inactive). Also, the EC50 in [2] is > 53 µM (inactive).
Consider `O=C(CCn1c(=O)oc2ccccc21)Nc1ccccc1`, for which, in assay [7], the EC50 was > 260 µM (inactive).
Still for that read-out and setting: under `CCOc1ccc(CNC(=O)c2cccc(NC(=O)C3=C(C)OCCS3)c2)cc1` stands > 260 µM (inactive).
`Cc1nn(C)c(C)c1NC(=O)CSc1nc(C2CC2)nc2c1cnn2-c1ccccc1`: the figures for the EC50 in assay [5] and in [6] were 5.78 µM (active) and 10.8 µM (active), respectively.
Take `Cc1ccc(-c2cnc3cc(C)nn3c2)cc1`: the EC50 in assay [7] was > 260 µM (inactive).
As for `c1ccc(-c2cc(-c3ccc(N4CCOCC4)cc3)nc3ccccc23)cc1`, the CC50 in assay [3] is > 50 µM (active).
As to `Cc1sc2nc(CN(Cc3cccs3)C(=O)NC3CCCCC3)[nH]c(=O)c2c1C`, the IC50 in assay [1] was 16.4 µM (active). In addition, in assay [2], the EC50 was > 53 µM (inactive).
Turning to `CCn1cc(C2=NC(c3ccccc3)CO2)c2ccccc21` (stereo unspecified), in assay [3], the CC50 is 14.8 µM (active).
